Species on record: Rattus norvegicus
Experiment: DrugMatrix - Regimen: Daily Repeat
Format: toxicity, organism-based, Sprague-Dawley
Design: regimen Daily Repeat, gender Male, age 6-8 weeks
Conditions: in vivo, po, route oral GAVAGE, vehicle .5 % CMC; for BASOPHIL / EOSINOPHIL / ERYTHROCYTE COUNT / HEMATOCRIT / HEMOGLOBIN / LEUKOCYTE COUNT / LYMPHOCYTE / MEAN CORPUSCULAR HEMOGLOBIN / MEAN CORPUSCULAR HEMOGLOBIN CONCENTRATION / MEAN CORPUSCULAR VOLUME / MONOCYTE / NEUTROPHIL / PLATELET COUNT: tissue Blood; for ALANINE AMINOTRANSFERASE / ALBUMIN / ALKALINE PHOSPHATASE / ASPARTATE AMINOTRANSFERASE / BLOOD UREA NITROGEN / CHLORIDE / CHOLESTEROL / CREATINE PHOSPHOKINASE / CREATININE / GLUCOSE / PHOSPHORUS / POTASSIUM / SODIUM / TOTAL PROTEIN: tissue Plasma
[1] = 0 mg/kg, 72 h, dose level Control, time 3 day
[2] = 0 mg/kg, 120 h, dose level Control, time 5 day
[3] = 1 mg/kg, 72 h, dose level Low, time 3 day
[4] = 1 mg/kg, 120 h, dose level Low, time 5 day
[5] = 14 mg/kg, 72 h, dose level High, time 3 day
[6] = 14 mg/kg, 120 h, dose level High, time 5 day

CN1C(C(=O)Nc2ccccn2)=C(O)c2ccccc2S1(=O)=O [PIROXICAM]
BASOPHIL [1]: 0% | EOSINOPHIL [1]: 0.33% | ERYTHROCYTE COUNT [1]: 6.03 x10E6/uL | HEMATOCRIT [1]: 38.8% | HEMOGLOBIN [1]: 14.26 G/DL | LEUKOCYTE COUNT [1]: 10.64 x10E3/uL | LYMPHOCYTE [1]: 83.33% | MEAN CORPUSCULAR HEMOGLOBIN [1]: 23.64 pg | MEAN CORPUSCULAR HEMOGLOBIN CONCENTRATION [1]: 36.74 G/DL | MEAN CORPUSCULAR VOLUME [1]: 64.32 fL | MONOCYTE [1]: 3.33% | NEUTROPHIL [1]: 13% | PLATELET COUNT [1]: 1264.4 x10E3/uL | ALANINE AMINOTRANSFERASE [1]: 38.83 u/L | ALBUMIN [1]: 3.55 G/DL | ALKALINE PHOSPHATASE [1]: 368.33 u/L | ASPARTATE AMINOTRANSFERASE [1]: 66.17 u/L | BLOOD UREA NITROGEN [1]: 15.67 mg/dL | CHLORIDE [1]: 104.33 MEQ/L | CHOLESTEROL [1]: 76.5 mg/dL | CREATINE PHOSPHOKINASE [1]: 166.83 u/L | CREATININE [1]: 0.52 mg/dL | GLUCOSE [1]: 173.17 mg/dL | PHOSPHORUS [1]: 11.68 mg/dL | POTASSIUM [1]: 6.43 MEQ/L | SODIUM [1]: 149.5 MEQ/L | TOTAL PROTEIN [1]: 5.93 G/DL | BASOPHIL [2]: 0% | EOSINOPHIL [2]: 0% | ERYTHROCYTE COUNT [2]: 5.88 x10E6/uL | HEMATOCRIT [2]: 37.87% | HEMOGLOBIN [2]: 14.48 G/DL | LEUKOCYTE COUNT [2]: 12.43 x10E3/uL | LYMPHOCYTE [2]: 84.17% | MEAN CORPUSCULAR HEMOGLOBIN [2]: 24.65 pg | MEAN CORPUSCULAR HEMOGLOBIN CONCENTRATION [2]: 38.25 G/DL | MEAN CORPUSCULAR VOLUME [2]: 64.47 fL | MONOCYTE [2]: 4.33% | NEUTROPHIL [2]: 11.5% | PLATELET COUNT [2]: 1182.33 x10E3/uL | ALANINE AMINOTRANSFERASE [2]: 38.67 u/L | ALBUMIN [2]: 3.55 G/DL | ALKALINE PHOSPHATASE [2]: 342.5 u/L | ASPARTATE AMINOTRANSFERASE [2]: 63.33 u/L | BLOOD UREA NITROGEN [2]: 15.5 mg/dL | CHLORIDE [2]: 104 MEQ/L | CHOLESTEROL [2]: 75.5 mg/dL | CREATINE PHOSPHOKINASE [2]: 142.5 u/L | CREATININE [2]: 0.62 mg/dL | GLUCOSE [2]: 165.17 mg/dL | PHOSPHORUS [2]: 10.87 mg/dL | POTASSIUM [2]: 6.85 MEQ/L | SODIUM [2]: 150.17 MEQ/L | TOTAL PROTEIN [2]: 5.93 G/DL | BASOPHIL [3]: 0% | EOSINOPHIL [3]: 0% | ERYTHROCYTE COUNT [3]: 6.55 x10E6/uL | HEMATOCRIT [3]: 42.8% | HEMOGLOBIN [3]: 15.95 G/DL | LEUKOCYTE COUNT [3]: 11.1 x10E3/uL | LYMPHOCYTE [3]: 85.5% | MEAN CORPUSCULAR HEMOGLOBIN [3]: 24.3 pg | MEAN CORPUSCULAR HEMOGLOBIN CONCENTRATION [3]: 37.3 G/DL | MEAN CORPUSCULAR VOLUME [3]: 65.25 fL | MONOCYTE [3]: 3.5% | NEUTROPHIL [3]: 11% | PLATELET COUNT [3]: 1530 x10E3/uL | ALANINE AMINOTRANSFERASE [3]: 31.5 u/L | ALBUMIN [3]: 3.75 G/DL | ALKALINE PHOSPHATASE [3]: 379 u/L | ASPARTATE AMINOTRANSFERASE [3]: 59 u/L | BLOOD UREA NITROGEN [3]: 16.5 mg/dL | CHLORIDE [3]: 102.5 MEQ/L | CHOLESTEROL [3]: 77.5 mg/dL | CREATINE PHOSPHOKINASE [3]: 142.5 u/L | CREATININE [3]: 0.4 mg/dL | GLUCOSE [3]: 174 mg/dL | PHOSPHORUS [3]: 13.7 mg/dL | POTASSIUM [3]: 6.85 MEQ/L | SODIUM [3]: 152 MEQ/L | TOTAL PROTEIN [3]: 6.2 G/DL | BASOPHIL [4]: 0% | EOSINOPHIL [4]: 0.33% | ERYTHROCYTE COUNT [4]: 6.32 x10E6/uL | HEMATOCRIT [4]: 40.2% | HEMOGLOBIN [4]: 15.2 G/DL | LEUKOCYTE COUNT [4]: 12.73 x10E3/uL | LYMPHOCYTE [4]: 86.33% | MEAN CORPUSCULAR HEMOGLOBIN [4]: 24.07 pg | MEAN CORPUSCULAR HEMOGLOBIN CONCENTRATION [4]: 37.83 G/DL | MEAN CORPUSCULAR VOLUME [4]: 63.7 fL | MONOCYTE [4]: 2.33% | NEUTROPHIL [4]: 11% | PLATELET COUNT [4]: 1319.67 x10E3/uL | ALANINE AMINOTRANSFERASE [4]: 36.67 u/L | ALBUMIN [4]: 3.43 G/DL | ALKALINE PHOSPHATASE [4]: 437.33 u/L | ASPARTATE AMINOTRANSFERASE [4]: 64 u/L | BLOOD UREA NITROGEN [4]: 13.67 mg/dL | CHLORIDE [4]: 103 MEQ/L | CHOLESTEROL [4]: 65 mg/dL | CREATINE PHOSPHOKINASE [4]: 156.67 u/L | CREATININE [4]: 0.53 mg/dL | GLUCOSE [4]: 162.67 mg/dL | PHOSPHORUS [4]: 11.97 mg/dL | POTASSIUM [4]: 7.07 MEQ/L | SODIUM [4]: 148.33 MEQ/L | TOTAL PROTEIN [4]: 5.63 G/DL | BASOPHIL [5]: 0% | EOSINOPHIL [5]: 0.67% | ERYTHROCYTE COUNT [5]: 6.72 x10E6/uL | HEMATOCRIT [5]: 42.6% | HEMOGLOBIN [5]: 15.63 G/DL | LEUKOCYTE COUNT [5]: 11.5 x10E3/uL | LYMPHOCYTE [5]: 77.67% | MEAN CORPUSCULAR HEMOGLOBIN [5]: 23.3 pg | MEAN CORPUSCULAR HEMOGLOBIN CONCENTRATION [5]: 36.73 G/DL | MEAN CORPUSCULAR VOLUME [5]: 63.4 fL | MONOCYTE [5]: 1.67% | NEUTROPHIL [5]: 20% | PLATELET COUNT [5]: 1318.33 x10E3/uL | ALANINE AMINOTRANSFERASE [5]: 31.33 u/L | ALBUMIN [5]: 3.67 G/DL | ALKALINE PHOSPHATASE [5]: 301.33 u/L | ASPARTATE AMINOTRANSFERASE [5]: 56.33 u/L | BLOOD UREA NITROGEN [5]: 18.33 mg/dL | CHLORIDE [5]: 104.67 MEQ/L | CHOLESTEROL [5]: 84.67 mg/dL | CREATINE PHOSPHOKINASE [5]: 181.33 u/L | CREATININE [5]: 0.47 mg/dL | GLUCOSE [5]: 193.67 mg/dL | PHOSPHORUS [5]: 14.03 mg/dL | POTASSIUM [5]: 6.9 MEQ/L | SODIUM [5]: 150.67 MEQ/L | TOTAL PROTEIN [5]: 6.03 G/DL | BASOPHIL [6]: 0% | EOSINOPHIL [6]: 0% | ERYTHROCYTE COUNT [6]: 6.6 x10E6/uL | HEMATOCRIT [6]: 41.4% | HEMOGLOBIN [6]: 15.03 G/DL | LEUKOCYTE COUNT [6]: 16.7 x10E3/uL | LYMPHOCYTE [6]: 84.33% | MEAN CORPUSCULAR HEMOGLOBIN [6]: 22.83 pg | MEAN CORPUSCULAR HEMOGLOBIN CONCENTRATION [6]: 36.4 G/DL | MEAN CORPUSCULAR VOLUME [6]: 62.8 fL | MONOCYTE [6]: 0.67% | NEUTROPHIL [6]: 15% | PLATELET COUNT [6]: 1151 x10E3/uL | ALANINE AMINOTRANSFERASE [6]: 37.33 u/L | ALBUMIN [6]: 3.4 G/DL | ALKALINE PHOSPHATASE [6]: 386 u/L | ASPARTATE AMINOTRANSFERASE [6]: 55.33 u/L | BLOOD UREA NITROGEN [6]: 15.33 mg/dL | CHLORIDE [6]: 101.67 MEQ/L | CHOLESTEROL [6]: 67 mg/dL | CREATINE PHOSPHOKINASE [6]: 159.67 u/L | CREATININE [6]: 0.5 mg/dL | GLUCOSE [6]: 174.67 mg/dL | PHOSPHORUS [6]: 14.17 mg/dL | POTASSIUM [6]: 7.1 MEQ/L | SODIUM [6]: 149 MEQ/L | TOTAL PROTEIN [6]: 5.7 G/DL
